Measured values: patent publication US20230203026A1, “PESTICIDAL COMPOSITIONS AND METHODS” (CORTEVA AGRISCIENCE LLC, priority 2017, published 2023)

Columns and labels:
[1] = system: beet armyworm (Spodoptera exigua, LAPHEG) ("BAW"); test: Insecticidal test for beet armyworm, 128-well diet tray assay; type: in vivo; conditions: 168 h, 50 μg/cm^2 of test compound on artificial diet, second instar BAW larvae, 25° C., five to seven days, average of eight wells, read-out: BAW % Control (or Mortality) rating
Procedure: Insecticidal test for beet armyworm (Spodoptera exigua, LAPHEG) (“BAW”)
(§1) Bioassays on beet armyworm (BAW; Spodoptera exigua: Lepidoptera) are conducted using a 128-well diet tray assay. One to five second instar BAW larvae are placed in each well (3 mL) of the diet tray that had been previously filled with 1 mL of artificial diet to which 50 μg/cm^2 of the test compound (dissolved in 50 μL of 90:10 acetone-water mixture) had been applied (to each of eight wells) and then allowed to dry. Trays are covered with a clear self-adhesive cover, vented to allow gas exchange, and held at 25° C., 14:10 light-dark for five to seven days. Percent mortality is recorded for the larvae in each well; activity in the eight wells is then averaged.

[2] = system: Cabbage Looper (Trichloplusia ni, TRIPNI) ("CL"); test: Insecticidal test for cabbage looper, 128-well diet tray assay; type: in vivo; conditions: Trichoplusia ni, 168 h; 50 μg/cm^2 of test compound on artificial diet; second instar CL larvae; 25° C.; five to seven days; average of eight wells; read-out: CL % Control (or Mortality) rating
Procedure: Insecticidal Test for Cabbage Looper (Trichloplusia ni, TRIPNI) (“CL”)
as §1, with “cabbage looper (CL; Trichloplusia ni:” for “beet armyworm (BAW; Spodoptera exigua:”, “CL” for “BAW”

Structure (SMILES) | mortality at 50 µg/cm2 [1] | mortality at 50 µg/cm2 [2]
CC(C)c1ccc(Cl)cc1N1C(=O)CS/C1=N\C(=O)NOC(C)c1ccc(-c2ncn(-c3ccc(OC(F)(F)F)cc3)n2)cc1 (stereo not shown) [A21, (Z)-1-(3-(5-Chloro-2-isopropylphenyl)-4-oxothiazolidin-2-ylidene)-3-(1-(4-(1-(4-(trifluoromethoxy)phenyl)-1H-1,2,4-triazol-3-yl)phenyl)ethoxy)urea] | 50 to 100% | 50 to 100%
Cc1ccc(Cl)c(N2C(=O)CS/C2=N\C(=O)NOCc2ccc(-c3ncn(-c4ccc(OC(F)(F)F)cc4)n3)cc2)c1 [A22, (Z)-1-(3-(2-Chloro-5-methylphenyl)-4-oxothiazolidin-2-ylidene)-3-((4-(1-(4-(trifluoromethoxy)phenyl)-1H-1,2,4-triazol-3-yl)benzyl)oxy)urea] | 50 to 100% | 50 to 100%
CCCc1ccc(OC)cc1N1C(=O)CS/C1=N\C(=O)NOCc1ccc(-c2ncn(-c3ccc(OC(F)(F)F)cc3)n2)cc1 [A23, (Z)-1-(3-(5-Methoxy-2-propylphenyl)-4-oxothiazolidin-2-ylidene)-3-((4-(1-(4-(trifluoromethoxy)phenyl)-1H-1,2,4-triazol-3-yl)benzyl)oxy)urea] | 50 to 100% | 50 to 100%
Cc1ccc(C(F)(F)F)c(N2C(=O)CS/C2=N\C(=O)NOCc2ccc(-c3ncn(-c4ccc(OC(F)(F)F)cc4)n3)cc2)c1 [A24, (Z)-1-(3-(5-Methyl-2-(trifluoromethyl)phenyl)-4-oxothiazolidin-2-ylidene)-3-((4-(1-(4-(trifluoromethoxy)phenyl)-1H-1,2,4-triazol-3-yl)benzyl)oxy)urea] | 50 to 100% | 50 to 100%
COc1ccc(CC(F)(F)F)c(N2C(=O)CS/C2=N\C(=O)NOCc2ccc(-c3ncn(-c4ccc(OC(F)(F)F)cc4)n3)cc2)c1 [A25, (Z)-1-(3-(5-Methoxy-2-(2,2,2-trifluoroethyl)phenyl)-4-oxothiazolidin-2-ylidene)-3-((4-(1-(4-(trifluoromethoxy)phenyl)-1H-1,2,4-triazol-3-yl)benzyl)oxy)urea] | 50 to 100% | 50 to 100%
COc1ccc(C(C)C)c(N2C(=O)CS/C2=N\C(=O)NOCc2ccc(-c3ncn(-c4ccc(OC(F)(F)F)cc4)n3)cc2)c1 [A26, (Z)-1-(3-(2-Isopropyl-5-methoxyphenyl)-4-oxothiazolidin-2-ylidene)-3-((4-(1-(4-(trifluoromethoxy)phenyl)-1H-1,2,4-triazol-3-yl)benzyl)oxy)urea] | 50 to 100% | 50 to 100%
COCc1ccc(C)cc1N1C(=O)CS/C1=N\C(=O)NOCc1ccc(-c2ncn(-c3ccc(OC(F)(F)F)cc3)n2)cc1 [A27, (Z)-1-(3-(2-(Methoxymethyl)-5-methylphenyl)-4-oxothiazolidin-2-ylidene)-3-((4-(1-(4-(trifluoromethoxy)phenyl)-1H-1,2,4-triazol-3-yl)benzyl)oxy)urea] | 50 to 100% | 50 to 100%
Cc1ccc(C(C)C)c(N2C(=O)CS/C2=N\C(=O)NOCc2ccc(-c3ncn(-c4ccc(OC(F)(F)F)cc4)n3)cc2)c1 [A28, (Z)-1-(3-(2-Isopropyl-5-methylphenyl)-4-oxothiazolidin-2-ylidene)-3-((4-(1-(4-(trifluoromethoxy)phenyl)-1H-1,2,4-triazol-3-yl)benzyl)oxy)urea] | 50 to 100% | 50 to 100%
CC(C)c1ccccc1N1C(=O)CS/C1=N\C(=O)NOCc1ccc(-c2ncn(-c3ccc(OC(F)(F)F)cc3)n2)cc1 [A29, (Z)-1-(3-(2-Isopropylphenyl)-4-oxothiazolidin-2-ylidene)-3-((4-(1-(4-(trifluoromethoxy)phenyl)-1H-1,2,4-triazol-3-yl)benzyl)oxy)urea] | 50 to 100% | 50 to 100%
Cc1ccc(OCC(F)(F)F)c(N2C(=O)CS/C2=N\C(=O)NOCc2ccc(-c3ncn(-c4ccc(OC(F)(F)F)cc4)n3)cc2)c1 [A30, (Z)-1-(3-(5-Methyl-2-(2,2,2-trifluoroethoxy)phenyl)-4-oxothiazolidin-2-ylidene)-3-((4-(1-(4-(trifluoromethoxy)phenyl)-1H-1,2,4-triazol-3-yl)benzyl)oxy)urea] | 50 to 100% | 50 to 100%
O=C(/N=C1\SCC(=O)N1c1cc(Cl)ccc1OCC(F)(F)F)NOCc1ccc(-c2ncn(-c3ccc(OC(F)(F)F)cc3)n2)cc1 [A31, (Z)-1-(3-(5-Chloro-2-(2,2,2-trifluoroethoxy)phenyl)-4-oxothiazolidin-2-ylidene)-3-((4-(1-(4-(trifluoromethoxy)phenyl)-1H-1,2,4-triazol-3-yl)benzyl)oxy)urea] | 50 to 100% | 50 to 100%
CC(C)c1ccc(Cl)cc1N1C(=O)CS/C1=N\C(=O)NOCc1ccc(-c2ncn(-c3ccc(OC(F)(F)F)cc3)n2)cc1 [A32, (Z)-1-(3-(5-Chloro-2-isopropylphenyl)-4-oxothiazolidin-2-ylidene)-3-((4-(1-(4-(trifluoromethoxy)phenyl)-1H-1,2,4-triazol-3-yl)benzyl)oxy)urea] | 50 to 100% | 50 to 100%
Cc1ccc(C(C)C)c(N2C(=O)CS/C2=N\C(=O)NOCc2ccc(-c3ncn(-c4ccc(OC(F)(F)C(F)(F)F)cc4)n3)cc2)c1 [A33, (Z)-1-(3-(2-Isopropyl-5-methylphenyl)-4-oxothiazolidin-2-ylidene)-3-((4-(1-(4-(perfluoroethoxy)phenyl)-1H-1,2,4-triazol-3-yl)benzyl)oxy)urea] | 50 to 100% | 50 to 100%
Cc1ccc(C(C)C)c(N2C(=O)CS/C2=N\C(=O)NOC(C)c2ccc(-c3ncn(-c4ccc(OC(F)(F)C(F)(F)F)cc4)n3)cc2)c1 (stereo not shown) [A34, (Z)-1-(3-(2-Isopropyl-5-methylphenyl)-4-oxothiazolidin-2-ylidene)-3-(1-(4-(1-(4-(perfluoroethoxy)phenyl)-1H-1,2,4-triazol-3-yl)phenyl)ethoxy)urea] | 50 to 100% | 50 to 100%
Cc1ccc(C(C)C)c(N2C(=O)CS/C2=N\C(=O)ON(Cc2ccc(-c3ncn(-c4ccc(OC(F)(F)F)cc4)n3)cc2)C(=O)OC(C)(C)C)c1 [A35, tert-Butyl (Z)-(((3-(2-isopropyl-5-methylphenyl)-4-oxothiazolidin-2-ylidene)carbamoyl)oxy)(4-(1-(4-(trifluoromethoxy)phenyl)-1H-1,2,4-triazol-3-yl)benzyl)carbamate] | 0% | 0%
CC(C)c1ccc(Cl)cc1N1C(=O)CS/C1=N\C(=O)NN(C)C(C)c1ccc(-c2ncn(-c3ccc(OC(F)(F)F)cc3)n2)cc1 (stereo not shown) [A36, (Z)—N-(3-(5-Chloro-2-isopropylphenyl)-4-oxothiazolidin-2-ylidene)-2-methyl-2-(1-(4-(1-(4-(trifluoromethoxy)phenyl)-1H-1,2,4-triazol-3-yl)phenyl)ethyl)hydrazine-1-carboxamide] | 50 to 100% | 50 to 100%
Cc1ccc(C(F)(F)F)c(N2C(=O)CS/C2=N\C(=O)NN(C)C(C)c2ccc(-c3ncn(-c4ccc(OC(F)(F)F)cc4)n3)cc2)c1 (stereo not shown) [A37, (Z)-2-Methyl-N-(3-(5-methyl-2-(trifluoromethyl)phenyl)-4-oxothiazolidin-2-ylidene)-2-(1-(4-(1-(4-(trifluoromethoxy)phenyl)-1H-1,2,4-triazol-3-yl)phenyl)ethyl)hydrazine-1-carboxamide] | 50 to 100% | 50 to 100%
Cc1ccc(OCC(F)(F)F)c(N2C(=O)CS/C2=N\C(=O)NN(C)C(C)c2ccc(-c3ncn(-c4ccc(OC(F)(F)F)cc4)n3)cc2)c1 (stereo not shown) [A38, (Z)-2-Methyl-N-(3-(5-methyl-2-(2,2,2-trifluoroethoxy)phenyl)-4-oxothiazolidinylidene)-2-(1-(4-(1-(4-(trifluoromethoxy)phenyl)-1H-1,2,4-triazolyl)phenyl)ethyl)hydrazine-1-carboxamide] | 50 to 100% | 50 to 100%
Cc1ccc(C(C)C)c(N2C(=O)CS/C2=N\C(=O)ON(C)Cc2ccc(-c3ncn(-c4ccc(OC(F)(F)F)cc4)n3)cc2)c1 [A39, (Z)-3-(2-isopropyl-5-methylphenyl)-2-((((methyl(4-(1-(4-(trifluoromethoxy)phenyl)-1H-1,2,4-triazol-3-yl)benzyl)amino)oxy)carbonyl)imino)thiazolidin-4-one] | 50 to 100% | 50 to 100%
Cc1ccc(C(C)C)c(N2C(=O)CS/C2=N\C(=O)ONCc2ccc(-c3ncn(-c4ccc(OC(F)(F)F)cc4)n3)cc2)c1 [A40, (Z)-3-(2-isopropyl-5-methylphenyl)-2-(((((4-(1-(4-(trifluoromethoxy)phenyl)-1H-1,2,4-triazol-3-yl)benzyl)amino)oxy)carbonyl)imino)thiazolidin-4-one] | 50 to 100% | 50 to 100%
